Results as given in article PMC8418346, “Aromatic L-amino acid decarboxylase deficiency: a patient-derived neuronal model for precision therapies” (Brain, 2021).
Each block holds one molecule with its values, some of them ahead of it.

What was measured:
[1] = target: T1, AADC (aromatic L-amino acid decarboxylase), recombinant (Homo sapiens, UniProt P20711, C100S); test: PLP binding affinity of recombinant AADC (method in supplement)
T1 construct: gene DDC; recombinant AADC produced in vitro; native homodimer
T1 sequence (P20711 1-480 C100S): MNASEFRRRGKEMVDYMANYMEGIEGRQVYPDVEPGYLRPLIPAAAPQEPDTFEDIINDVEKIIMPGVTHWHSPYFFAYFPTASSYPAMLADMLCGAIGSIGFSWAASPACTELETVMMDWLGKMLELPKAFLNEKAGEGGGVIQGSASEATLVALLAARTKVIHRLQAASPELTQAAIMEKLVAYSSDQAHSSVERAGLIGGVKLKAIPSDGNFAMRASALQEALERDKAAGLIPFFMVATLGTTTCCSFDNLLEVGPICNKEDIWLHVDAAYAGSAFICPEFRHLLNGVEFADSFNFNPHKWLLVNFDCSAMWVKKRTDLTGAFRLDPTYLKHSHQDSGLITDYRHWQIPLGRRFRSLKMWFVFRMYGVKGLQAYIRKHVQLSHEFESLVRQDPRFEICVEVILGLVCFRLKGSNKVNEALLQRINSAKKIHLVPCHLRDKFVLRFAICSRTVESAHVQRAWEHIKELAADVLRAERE
Source text: PLP binding affinity of recombinant AADC (method in supplement) on AADC (aromatic L-amino acid decarboxylase), recombinant | with a KD(PLP) consistently lower than previously reported values for AADC variants

[2] = target: T2, AADC (aromatic L-amino acid decarboxylase), recombinant (Homo sapiens, UniProt P20711); test: kinetic parameters of recombinant AADC (method in supplement); type: biochemical; details: wild-type reference of the C100S comparison; main text does not state whether measured here or taken from earlier work
T2 construct: gene DDC; recombinant AADC produced in vitro; native homodimer
T2 sequence (P20711 1-480): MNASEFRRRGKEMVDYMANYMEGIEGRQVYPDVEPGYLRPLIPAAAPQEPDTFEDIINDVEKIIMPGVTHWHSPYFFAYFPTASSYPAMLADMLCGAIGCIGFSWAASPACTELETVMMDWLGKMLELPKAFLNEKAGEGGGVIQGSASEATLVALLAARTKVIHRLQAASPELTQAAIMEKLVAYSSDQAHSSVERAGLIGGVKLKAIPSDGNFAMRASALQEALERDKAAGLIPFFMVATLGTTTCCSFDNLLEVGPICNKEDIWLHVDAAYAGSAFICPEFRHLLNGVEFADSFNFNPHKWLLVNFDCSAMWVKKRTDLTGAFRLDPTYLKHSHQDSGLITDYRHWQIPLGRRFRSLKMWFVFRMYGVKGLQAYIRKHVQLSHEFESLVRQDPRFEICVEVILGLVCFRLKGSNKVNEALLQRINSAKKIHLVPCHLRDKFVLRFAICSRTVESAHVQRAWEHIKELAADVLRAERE

[3] = substrate: N[C@@H](Cc1ccc(O)c(O)c1)C(=O)O; test: as above; type: biochemical, Homo sapiens
Source text: kinetic parameters of recombinant AADC (method in supplement) on AADC (aromatic L-amino acid decarboxylase), recombinant | attributed to a slight decrease in L-DOPA affinity (KM)

- Kd [1]: 112 ± 14 nM
Molecule: Cc1ncc(COP(=O)(O)O)c(C=O)c1O [PLP]

Molecule: N[C@@H](Cc1ccc(O)c(O)c1)C(=O)O [L-DOPA]
- KM [2]: catalytic activity (kcat) of AADCC100S was indeed similar to that observed for wild-type

B1: AADC (aromatic L-amino acid decarboxylase), recombinant (Homo sapiens; C100S) (protein)
chain: MNASEFRRRGKEMVDYMANYMEGIEGRQVYPDVEPGYLRPLIPAAAPQEPDTFEDIINDVEKIIMPGVTHWHSPYFFAYFPTASSYPAMLADMLCGAIGSIGFSWAASPACTELETVMMDWLGKMLELPKAFLNEKAGEGGGVIQGSASEATLVALLAARTKVIHRLQAASPELTQAAIMEKLVAYSSDQAHSSVERAGLIGGVKLKAIPSDGNFAMRASALQEALERDKAAGLIPFFMVATLGTTTCCSFDNLLEVGPICNKEDIWLHVDAAYAGSAFICPEFRHLLNGVEFADSFNFNPHKWLLVNFDCSAMWVKKRTDLTGAFRLDPTYLKHSHQDSGLITDYRHWQIPLGRRFRSLKMWFVFRMYGVKGLQAYIRKHVQLSHEFESLVRQDPRFEICVEVILGLVCFRLKGSNKVNEALLQRINSAKKIHLVPCHLRDKFVLRFAICSRTVESAHVQRAWEHIKELAADVLRAERE
notes: recombinant AADC produced in vitro; native homodimer
- Km [3]: 420 ± 100 µM
- kcat [3]: 6.9 ± 0.6 s⁻¹
